Data reported in patent US10988459B2 (priority 2015, dated 2021).
Where two headings read alike, the source gives them in different places.

Molecular target: human RIP1 kinase domain (2-375) (Homo sapiens (Human), UniProt Q13546)
Test: biochemical
Type: biochemical
Conditions: 50 uM ATP
Description: Example 794: RIP1 Kinase Inhibition Assays (Biochemical Assay)
The compounds of the present invention were tested for their capacity to inhibit RIP1K activity as described below.
The ability of the receptor interacting protein kinase (RIPK1) to catalyze the hydrolysis of adenosine-5′-triphosphate (ATP) is monitored using the Transcreener ADP (adenosine-5′-diphosphate) assay (BellBrook Labs). Purified human RIP1 kinase domain (2-375) (50 nM) derived from a baculovirus-infected insect cell expression system is incubated with test compounds for 2 hours in 50 mM Hepes buffer (pH 7.5) containing 30 mM MgCl2, 1 mM dithiothreitol, 50 uM ATP, 0.002% Brij-35, and 0.5% dimethyl sulfoxide (DMSO). […] The tracer bound to the antibody is displaced by the ADP generated during the RIP1K reaction, which causes a decrease in fluorescence polarization that is measured by laser excitation at 633 nm with a FP microplate reader M1000. Fractional activity was plotted against test article concentration. Using Genedata Screener software (Genedata; Basel, Switzerland), the data were fit to the tight-binding apparent inhibition constant (Ki^app) Morrison equation [Williams, J. W. and Morrison, J. F. (1979) The kinetics of reversible tight-binding inhibition. Methods Enzymol 63: 437-67]. The following equation was used to calculate fractional activity and Ki^app:
[formula] where [E]T and [I]T are the total concentrations of active enzyme and test article, respectively.
“Method” in the first column of each table refers to the synthetic method(s) used to prepare each compound as shown in the Examples above. In certain examples, chiral column retention times (min) are provided for certain stereoisomers.

[1] = tight-binding apparent inhibition constant, human RIP1 kinase domain (2-375) 50 nM, 2 hours, read-out: Ki
[2] = Table 5, apparent Ki (Morrison tight-binding fit), 50 nM RIP1 kinase domain, 2 hours incubation, read-out: Ki
[3] = human RIP1 kinase domain (2-375), 2 hours incubation, Transcreener ADP assay, read-out: RIP1 Ki

Chain of human RIP1 kinase domain (2-375) (Q13546 2-375): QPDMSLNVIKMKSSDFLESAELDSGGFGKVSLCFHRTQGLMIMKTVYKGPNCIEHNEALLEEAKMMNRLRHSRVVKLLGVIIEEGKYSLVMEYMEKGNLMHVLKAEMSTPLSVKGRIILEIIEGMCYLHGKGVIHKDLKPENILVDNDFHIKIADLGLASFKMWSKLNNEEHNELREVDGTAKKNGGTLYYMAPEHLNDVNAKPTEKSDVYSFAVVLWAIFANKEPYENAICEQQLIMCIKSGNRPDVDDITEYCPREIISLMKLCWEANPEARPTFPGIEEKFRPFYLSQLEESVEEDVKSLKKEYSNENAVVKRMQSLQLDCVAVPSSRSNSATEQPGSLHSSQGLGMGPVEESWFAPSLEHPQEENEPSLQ

Molecule `Cc1cc(F)c2c(c1)OC[C@H](NC(=O)c1nc3cccc(C(F)(F)F)n3n1)C(=O)N2` [Example 419, (S)—N-(6-fluoro-8-methyl-4-oxo-2,3,4,5-tetrahydrobenzo[b][1,4]oxazepin-3-yl)-5-(trifluoromethyl)-[1,2,4]triazolo[1,5-a]pyridine-2-carboxamide] has a Ki [1] of 9.4 nM.

`Cc1ncn2c1N(C)C(=O)[C@H](NC(=O)c1ncn(Cc3ccccc3F)n1)CC2` [Example 580, 1-[(2-fluorophenyl)methyl]-N-[(3R)-1,9-dimethyl-2-oxo-4,5-dihydro-3H-imidazo[1,5-a][1,3]diazepin-3-yl]-1,2,4-triazole-3-carboxamide] showed a Ki [1] of 54 nM.

In the case of `O=C(N[C@H]1COc2cc(F)cc(F)c2NC1=O)c1nc2n(n1)[C@@H](C(F)(F)F)CCC2` (single isomer, unassigned) [Example 431], the Ki [1] is reported as 434 nM.

Molecule `CN1C(=O)[C@@H](NC(=O)c2ncc3n2CC(CC(F)(F)F)CC3)COc2ccccc21` (stereo partly drawn) [Example 469, N-[(3S)-5-methyl-4-oxo-2,3-dihydro-1,5-benzoxazepin-3-yl]-6-(2,2,2-trifluoroethyl)-5,6,7,8-tetrahydroimidazo[1,5-a]pyridine-3-carboxamide] has a Ki [1] of 1000 nM.

For `CN1C(=O)[C@@H](NC(=O)c2cn(Cc3ccccc3)cn2)CCn2nccc21` (single isomer, unassigned) [Example 750], the Ki [2] was 66 nM.

With `C[C@@H](c1ccc(F)cc1)n1cnc(C(=O)N[C@H]2CCn3nc(C4CC4)cc3N(C)C2=O)n1` (racemic) [Example 670, N-[rac-(6S)-2-cyclopropyl-4-methyl-5-oxo-7,8-dihydro-6H-pyrazolo[1,5-a][1,3]diazepin-6-yl]-1-[rac-(1S)-1-(4-fluorophenyl)ethyl]-1,2,4-triazole-3-carboxamide] the Ki [1] was 26.6 nM.

In the case of `CN1C(=O)[C@@H](NC(=O)c2ncn(Cc3ccccc3)n2)CCn2nc(CNCC(F)(F)F)cc21` (single isomer, unassigned) [Example 733], the Ki [2] is reported as 68 nM.

In the case of `CN1C(=O)[C@@H](NC(=O)c2ncn(Cc3cccc(F)c3F)n2)CCn2nc(C(F)(F)F)cc21` [Example 523, 1-[(2,3-difluorophenyl)methyl]-N-(6S)-4-methyl-5-oxo-2-(trifluoromethyl)-7,8-dihydro-6H-pyrazolo[1,5-a][1,3]diazepin-6-yl-1,2,4-triazole-3-carboxamide], the Ki [1] is reported as 13 nM.

With `CN1C(=O)C(NC(=O)c2n[nH]c(Cc3ccccc3)n2)CCn2cncc21` (stereo not shown) [Example 293, 5-benzyl-N-(1-methyl-2-oxo-2,3,4,5-tetrahydro-1H-imidazo[1,5-a][1,3]diazepin-3-yl)-1H-1,2,4-triazole-3-carboxamide] the Ki (human RIP1 kinase domain (2-375), Transcreener ADP assay, 2 hours incubation, read-out: RIP1 Ki) was 72.8 nM.

Molecule `Cc1cc2n(n1)CC[C@H](NC(=O)c1ncn(Cc3ccc(F)cc3)n1)C(=O)N2C` [Example 222, (S)—N-(2,4-dimethyl-5-oxo-5,6,7,8-tetrahydro-4H-pyrazolo[1,5-a][1,3]diazepin-6-yl)-1-(4-fluorobenzyl)-1H-1,2,4-triazole-3-carboxamide] has a Ki [3] of 25.9 nM.

For `CN1C(=O)[C@H](NC(=O)c2ncn(Cc3ccccc3)n2)CCn2nc([C@@H]3CC3(F)F)cc21` (stereo in doubt) [Example 675, 1-benzyl-N-[rac-(6R)-4-methyl-5-oxo-2-[rac-(1S)-2,2-difluorocyclopropyl]-7,8-dihydro-6H-pyrazolo[1,5-a] [1,3]diazepin-6-yl]-1,2,4-triazole-3-carcoxamide], the Ki [1] was 16.4 nM.

Molecule `CN1C(=O)[C@@H](NC(=O)c2n[nH]c3c2CC(c2ccccc2)OC3)COc2ccccc21` (stereo partly drawn) [Example 9, N—((S)-5-methyl-4-oxo-2,3,4,5-tetrahydrobenzo[b][1,4]oxazepin-3-yl)-5-phenyl-1,4,5,7-tetrahydropyrano[3,4-c]pyrazole-3-carboxamide] has a Ki (Table 1, apparent Ki (Morrison tight-binding fit), 50 nM RIP1 kinase domain, 2 hours incubation, read-out: RIP1 Ki) of 282 nM.

For `CN1C(=O)C(NC(=O)c2nnc(Cc3ccccc3)[nH]2)CCn2nc3c(c21)CCCC3` (stereo not shown) [Example 133, 5-benzyl-N-(1-methyl-2-oxo-2,3,4,5,8,9,10,11-octahydro-1H-[1,3]diazepino[1,2-b]indazol-3-yl)-4H-1,2,4-triazole-3-carboxamide], the Ki [3] was 127 nM.
